Laboratory results: patent US9808466B2, “Macrocyclic compounds as protein kinase inhibitors” (Fundación Centro Nacional de Investigaciones Oncologicas …, priority 2011, dated 2017)
Where two headings read alike, the source gives them in different places.

Tests used:
PIM-1 = target: T1, PIM-1 (Homo sapiens, UniProt P11309); assay: PIM-1 biochemical assay (ADP Hunter)
T1 construct: histidine tag (C); made in house
From the text: The biochemical assay to measure PIM-1 activity relies on the ADP Hunter assay kit (DiscoveRx Corp., Cat. #90-0077), that determines the amount of ADP as direct product of the kinase enzyme activity.
The enzyme has been expressed and purified in-house as a recombinant human protein with a C-terminal histidine tag. The protein is active and stable.
Assay conditions were as indicated by the kit manufacturers with the following adaptations for the kinase activity step: • Kinase assay buffer and assay volume stay as recommended (15 mM HEPES, pH 7.4, 20 mM NaCl, 1 mM EGTA, 0.02% Tween 20, 10 mM MgCl2 and 0.1 mg/ml bovine γ-globulins/75 μl assay volume) • Incubation time and temperature: 60 min at 30° C. • PIM-1 concentration: 50 pg/μl • ATP concentration: 100 μM • PIM-1 substrate peptide: PIMtide ([…]) (SEQIDNO. 1) • Peptide concentration: 60 μM • Positive control for kinase activity inhibition: 1-10 μM Staurosporine • DMSO concentration have to stay below 2% during the kinase reaction
Assays were performed in either 96 or 384-well plates. The final outcome of the coupled reactions provided by the kit is the release of the fluorescent product Resorufin and has been measured with a multilabel HTS counter VICTOR V (PerkinElmer) using an excitation filter at 544 nm and an emission filter at 580 nm.

[1] = Pharmacokinetic in BALB-c female mice, i.v. and oral; type: in vivo; settings: for AUC(0-inf) / half-life / clearance / MRT / Vd / bioavailability / Cmax: mouse; for half-life: read-out: T½ last (plasmatic half life) (converted); for clearance: read-out: Cl (plasmatic clearance) (converted); for MRT: read-out: MRT (Mean residence time); for Vd: read-out: Vd (volume of distribution); for bioavailability: P.O dose 10.00 mg/Kg vs I.V 5.00 mg/Kg, read-out: F % (bioavailability); for Cmax: read-out: C max (maximum plasma concentration after oral administration)
Description: Experiments were done using BALB-c female mice, 10 weeks old. Compounds were dissolved in selected vehicles at a concentration calculated in order to administer the dose selected in 0.1 mL. Animals were administered by i.v and oral route (by gavage), and sacrificed at different time points (n=3 at each time point). Time points were 0.08, 0.25, 0.5, 1, 4 and 8 h for the i.v branch, and 0.08, 0.16, 0.25, 0.5, 1, 4, 8 and 24 h for oral branch. Blood was collected and processed for plasma which was analyzed and quantified by means of tandem mass spectrometry coupled with liquid chromatography. Pharmacokinetic parameters were estimated by fitting the experimental data to a compartmental model using Winnonlin software for pharmacokinetic analysis.

mTOR = target: T2, mTOR (Homo sapiens, UniProt P42345); assay: mTOR assay (LanthaScreen kinase activity assay); type: biochemical
T2 construct: purchased Invitrogen PV4754
T2 sequence (P42345 1360-2549 limits assumed): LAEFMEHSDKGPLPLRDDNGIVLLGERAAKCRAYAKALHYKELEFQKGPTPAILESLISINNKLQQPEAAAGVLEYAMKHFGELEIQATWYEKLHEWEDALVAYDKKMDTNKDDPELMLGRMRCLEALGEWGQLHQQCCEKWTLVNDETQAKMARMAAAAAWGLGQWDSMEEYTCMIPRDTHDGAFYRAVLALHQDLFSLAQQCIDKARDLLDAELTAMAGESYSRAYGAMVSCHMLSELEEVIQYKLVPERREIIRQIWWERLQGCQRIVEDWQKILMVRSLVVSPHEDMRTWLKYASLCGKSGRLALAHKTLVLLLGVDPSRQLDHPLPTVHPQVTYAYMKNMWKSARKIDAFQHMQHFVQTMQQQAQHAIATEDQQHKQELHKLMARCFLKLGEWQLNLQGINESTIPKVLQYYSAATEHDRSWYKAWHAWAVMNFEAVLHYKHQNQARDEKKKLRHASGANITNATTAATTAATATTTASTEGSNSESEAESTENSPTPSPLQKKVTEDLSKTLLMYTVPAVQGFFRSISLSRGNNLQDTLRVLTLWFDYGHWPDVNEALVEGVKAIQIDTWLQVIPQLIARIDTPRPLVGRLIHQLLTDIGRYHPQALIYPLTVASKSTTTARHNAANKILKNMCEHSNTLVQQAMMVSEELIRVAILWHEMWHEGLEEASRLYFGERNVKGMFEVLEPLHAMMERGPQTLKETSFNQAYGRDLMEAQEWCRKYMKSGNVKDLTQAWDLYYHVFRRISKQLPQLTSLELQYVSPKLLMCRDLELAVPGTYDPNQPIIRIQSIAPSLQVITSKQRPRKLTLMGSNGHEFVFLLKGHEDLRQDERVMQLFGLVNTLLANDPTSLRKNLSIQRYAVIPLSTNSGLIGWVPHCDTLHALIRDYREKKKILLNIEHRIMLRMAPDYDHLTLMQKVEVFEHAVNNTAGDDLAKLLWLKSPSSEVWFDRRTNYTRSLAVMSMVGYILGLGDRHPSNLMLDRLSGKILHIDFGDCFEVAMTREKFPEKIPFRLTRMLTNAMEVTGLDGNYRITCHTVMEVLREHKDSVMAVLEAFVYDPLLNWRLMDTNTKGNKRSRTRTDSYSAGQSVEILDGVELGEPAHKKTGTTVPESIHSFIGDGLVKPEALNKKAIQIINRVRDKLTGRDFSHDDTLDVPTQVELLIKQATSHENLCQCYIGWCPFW
Description: The enzymatic mTOR activity was measured using a LanthaScreen™ kinase activity assay (Invitrogen). The enzyme was purchased from Invitrogen (PV4754), as well as the GFP-labeled substrate (4EBP1-GFP; PV4759) and the Tb-anti-p4EBP1(pThr46) antibody (PV4757). The assay was performed in 50 mM HEPES buffer, pH 7.5, containing 1.5 mM MnCl2, 10 mM MgCl2, 1 mM EGTA, 2.5 mM DTT and 0.01% Tween-20. The concentration of the assay components were the following: 0.24 nM mTOR kinase, 400 nM 4EBP1-GFP, […] and serial dilutions of the compound (inhibitor) to be evaluated. After 1 h incubation at room temperature, 20 mM EDTA was used to stop the reaction and terbium-labeled antibody (4 nM) added to detect phosphorylated product. The antibody associates with the phosphorylated product resulting in an increased TR-FRET value. The TR-FRET value (a dimensionless number) was calculated as the ratio of the acceptor signal (GFP, emission at 520 nm) to the donor signal (terbium, emission at 495 nm). Values were plotted against the inhibitor concentration and fitted to a sigmoid dose-response curve using GraphPad software.

PI3K (p110α/p85α) = target: T3, PI3K (p110α/p85α) (Homo sapiens, UniProt P42336); assay: PI3K activity assay (ADP Hunter Plus); type: biochemical
T3 construct: purchased Carna Biosciences 07CBS-0402A
T3 sequence (P42336 whole entry): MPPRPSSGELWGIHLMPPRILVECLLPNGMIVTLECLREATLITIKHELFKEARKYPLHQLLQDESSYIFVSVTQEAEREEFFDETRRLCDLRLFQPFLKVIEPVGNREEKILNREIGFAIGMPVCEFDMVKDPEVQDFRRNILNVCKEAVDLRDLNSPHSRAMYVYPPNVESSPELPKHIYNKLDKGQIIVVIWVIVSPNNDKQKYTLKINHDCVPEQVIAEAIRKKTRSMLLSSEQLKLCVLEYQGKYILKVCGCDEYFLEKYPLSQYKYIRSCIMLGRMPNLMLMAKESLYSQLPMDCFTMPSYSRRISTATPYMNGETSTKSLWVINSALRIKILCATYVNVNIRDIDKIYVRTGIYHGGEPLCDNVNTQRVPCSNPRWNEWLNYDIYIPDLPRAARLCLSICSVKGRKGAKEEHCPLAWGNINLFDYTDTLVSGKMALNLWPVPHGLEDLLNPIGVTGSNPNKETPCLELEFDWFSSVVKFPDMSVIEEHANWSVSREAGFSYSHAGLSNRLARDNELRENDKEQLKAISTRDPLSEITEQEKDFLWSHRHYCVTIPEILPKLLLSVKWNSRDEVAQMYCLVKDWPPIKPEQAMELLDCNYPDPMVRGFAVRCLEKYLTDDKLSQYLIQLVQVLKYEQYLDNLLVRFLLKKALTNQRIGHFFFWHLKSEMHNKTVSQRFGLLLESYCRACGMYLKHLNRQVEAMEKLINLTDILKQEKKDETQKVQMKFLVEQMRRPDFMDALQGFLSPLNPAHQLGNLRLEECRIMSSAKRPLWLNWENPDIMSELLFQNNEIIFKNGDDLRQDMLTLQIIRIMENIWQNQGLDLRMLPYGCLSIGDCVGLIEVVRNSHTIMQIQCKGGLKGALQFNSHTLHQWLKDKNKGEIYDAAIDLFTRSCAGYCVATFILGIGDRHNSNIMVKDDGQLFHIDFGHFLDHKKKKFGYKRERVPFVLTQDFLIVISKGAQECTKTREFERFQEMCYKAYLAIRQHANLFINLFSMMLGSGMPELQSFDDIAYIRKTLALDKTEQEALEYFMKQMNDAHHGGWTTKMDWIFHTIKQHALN
T3 sequence (P27986 whole entry partner): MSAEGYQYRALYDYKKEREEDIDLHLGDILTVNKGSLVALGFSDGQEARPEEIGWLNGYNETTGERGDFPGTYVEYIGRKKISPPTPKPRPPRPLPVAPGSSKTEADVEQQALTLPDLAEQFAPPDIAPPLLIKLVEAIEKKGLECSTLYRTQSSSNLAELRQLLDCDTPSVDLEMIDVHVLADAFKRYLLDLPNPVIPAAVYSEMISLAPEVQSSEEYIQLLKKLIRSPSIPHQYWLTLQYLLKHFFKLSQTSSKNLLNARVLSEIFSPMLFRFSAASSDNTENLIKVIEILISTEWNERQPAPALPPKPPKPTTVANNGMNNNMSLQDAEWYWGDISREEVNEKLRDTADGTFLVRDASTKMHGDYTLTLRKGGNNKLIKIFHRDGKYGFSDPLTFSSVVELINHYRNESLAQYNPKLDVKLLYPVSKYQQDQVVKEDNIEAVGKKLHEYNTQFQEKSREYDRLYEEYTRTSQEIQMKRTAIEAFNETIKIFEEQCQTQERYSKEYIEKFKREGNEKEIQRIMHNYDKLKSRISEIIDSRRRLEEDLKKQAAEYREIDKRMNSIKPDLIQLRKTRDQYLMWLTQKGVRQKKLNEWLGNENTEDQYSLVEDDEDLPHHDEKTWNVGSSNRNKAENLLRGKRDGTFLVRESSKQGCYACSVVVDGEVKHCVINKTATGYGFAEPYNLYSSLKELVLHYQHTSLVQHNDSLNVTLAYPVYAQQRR
Description: The kinase activity was measured by using the commercial ADP Hunter™ Plus assay available from DiscoveRx (#33-016), which is a homogeneous assay to measure the accumulation of ADP, a universal product of kinase activity. […] Reaction was carried out for 1 hour at 25° C. Reagent A and B were sequentially added to the wells and plates were incubated for 30 min at 37° C. Fluorescence counts were read in a Victor instrument (Perkin Elmer) with the recommended settings (544 and 580 nm as excitation and emission wavelengths, respectively). Values were normalized against the control activity included for each enzyme (i.e., 100% PI3 kinase activity, without compound). These values were plotted against the inhibitor concentration and were fit to a sigmoid dose-response curve by using the Graphad software.

[2] = PIM1, read-out: PIM-1 activity, IC50 (semi-quantitative class)
[3] = iv, I.V, dose 5.00 mg/Kg, plasma
[4] = plasma, iv, I.V, dose 5.00 mg/Kg
[5] = po, P.O, dose 10.00 mg/Kg, plasma
[6] = read-out: mTOR activity, IC50 (semi-quantitative class)
[7] = read-out: PI3K alpha activity, IC50 (semi-quantitative class)
[8] = read-out: PI3K alpha actual IC50 (in parentheses)
[9] = PIM1, read-out: PIM-1 actual IC50 (in parentheses)
[10] = read-out: PIM-1 activity (semi-quantitative IC50)
[11] = read-out: mTOR activity (semi-quantitative IC50)
[12] = read-out: PI3K alpha activity (semi-quantitative IC50)

T1 sequence (P11309 whole entry): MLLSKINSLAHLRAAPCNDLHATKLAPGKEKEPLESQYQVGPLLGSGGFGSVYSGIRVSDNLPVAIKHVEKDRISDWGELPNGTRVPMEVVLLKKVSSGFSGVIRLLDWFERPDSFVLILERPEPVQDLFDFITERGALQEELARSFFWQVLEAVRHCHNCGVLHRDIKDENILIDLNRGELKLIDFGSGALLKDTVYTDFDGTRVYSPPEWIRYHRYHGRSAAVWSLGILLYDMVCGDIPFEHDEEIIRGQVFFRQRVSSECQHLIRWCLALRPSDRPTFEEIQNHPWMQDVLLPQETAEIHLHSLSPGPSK

Structure (SMILES) | IC50 (PIM-1; [2]) [nM] | IC50 (mTOR; [6]) [nM] | IC50 (PI3K (p110α/p85α); [7]) [nM] | IC50 (PI3K (p110α/p85α); [8]) [nM] | IC50 (PIM-1; [10]) [nM] | IC50 (mTOR; [11]) [nM] | IC50 (PI3K (p110α/p85α); [12]) [nM] | further results
COc1ncc2cc1NS(=O)(=O)c1cccc(c1)C(=O)NCc1cccc(c1)-c1ccnc3ccc-2cc13 [compound 3] | > 1000 | 100 to 1000 | < 100 | 1.6 |  |  |  | AUC(0-inf) [1, 3]: 23700 ng·h/mL; half-life [1, 3]: 1.41 h; clearance [1, 4]: 6 mL/min/kg; MRT [1, 4]: 1.27 h; Vd [1, 4]: 0.46 L/kg; bioavailability ([1]; plasma, po): 101%; AUC(0-inf) [1, 5]: 48100 ng·h/mL; Cmax [1, 5]: 12400 ng/mL
COc1ncc2cc1NS(=O)(=O)c1cc(c(F)cc1F)C(=O)NCc1cncc(c1)-c1ccnc3ccc-2cc13 [compound 10] | > 1000 | < 100 | < 100 | 0.03 |  |  |  | Cl (plasmatic clearance) ([1]; I.V, dose 5.00 mg/Kg): 8.83 mL/min/kg; AUC inf ([1]; I.V, dose 5.00 mg/Kg, plasma): 9467.60 ng·h/mL; T½ last (plasmatic half life) ([1]; I.V, dose 5.00 mg/Kg, plasma): 0.57 h; MRT [1, 4]: 0.53 h; Vd [1, 4]: 0.28 L/kg; bioavailability ([1]; plasma, po): 39.9%; AUC(0-inf) [1, 5]: 7560 ng·h/mL; Cmax [1, 5]: 3390 ng/mL; IC50 (mTOR; read-out: mTOR actual IC50 (in parentheses)): 22 nM
COc1ncc2cc1NS(=O)(=O)c1cccc(c1)C(=O)NCc1cccc(c1)-c1ncnc3ccc-2cc13 [compound 22] | > 1000 |  | < 100 | 0.1 |  |  |  | AUC(0-inf) [1, 3]: 66900 ng·h/mL; half-life [1, 3]: 3.42 h; clearance [1, 4]: 1.17 mL/min/kg; MRT [1, 4]: 4.94 h; Vd [1, 4]: 0.37 L/kg; bioavailability ([1]; plasma, po): 33.5%; AUC(0-inf) [1, 5]: 44800 ng·h/mL; Cmax [1, 5]: 15000 ng/mL
COc1ncc2cc1NS(=O)(=O)c1cccc(c1)C(=O)NCC1=CC=C(S1)c1ccnc3c1SC2=C3 [compound 80] | < 100 | > 1000 | 100 to 1000 |  |  |  |  | IC50 (PIM-1; [9]): 15 nM
COc1ncc2cc1NS(=O)(=O)c1ccc(F)c(c1)C(=O)NCC1=CC=C(S1)c1ncnc3c1SC2=C3 [compound 82] | < 100 | > 1000 | < 100 | 57 |  |  |  | IC50 (PIM-1; [9]): 13 nM
COc1ncc2cc1NS(=O)(=O)c1cccc(c1)C(=O)NC[C@H]1CCCN(C1)c1ncnc3c1SC2=C3 [compound 83] | 100 to 1000 | > 1000 | > 1000 |  |  |  |  | 
COc1ncc2cc1NS(=O)(=O)c1cccc(c1)C(=O)NC[C@@H]1CCCN(C1)c1ncnc3c1SC2=C3 [compound 84] | 100 to 1000 | > 1000 | > 1000 |  |  |  |  | 
O=C1NCc2cccc(c2)-c2cnn3ccc(nc23)-c2cnc(O)c(c2)NS(=O)(=O)c2cccc1c2 [compound 85] |  |  |  |  | > 1000 | > 1000 | 100 to 1000 | 
COc1ncc2cc1NS(=O)(=O)c1cccc(c1)C(=O)NC[C@@H]1CCN(C1)c1ncnc3c1SC2=C3 [compound 86] |  |  |  |  | 100 to 1000 | > 1000 | > 1000 | 
COc1ncc2cc1NS(=O)(=O)c1cccc(c1)C(=O)NC[C@H]1CCN(C1)c1ncnc3c1SC2=C3 [compound 87] |  |  |  |  | 100 to 1000 | > 1000 | > 1000 | 
COc1ncc2cc1NS(=O)(=O)c1cccc(c1)C(=O)NCC1=C(C)C=C(S1)c1ncnc3c1SC2=C3 [compound 88] |  |  |  |  | < 100 | > 1000 | 100 to 1000 | IC50 (PIM-1; read-out: PIM-1 IC50 (in parentheses)): 69 nM
COc1ncc2cc1NS(=O)(=O)c1cccc(c1)C(=O)NCc1ccncc1-c1ncnc3c1SC2=C3 [compound 89] |  |  |  |  | > 1000 | > 1000 | > 1000 | 
